Assay results published in US20260115162A1, “COMPOSITION OR ASSOCIATION OF COMPOUNDS PREFERABLY FOR USE IN THE TREATMENT OF NERVOUS DISEASES IN PARTICULAR NEURODEGENERATIVE DISEASES, METHOD FOR THE PREPARATION OF SUCH COMPOSITION OR ASSOCIATION OF COMPOUNDS AND USES THEREOF” (PHARMACEUTICA SAN MARCO S.R.L., priority 2022, published 2026).

Test system: serotonin (5-HT)
Assay: Serotonin (5-HT) levels in mice treated with Aβ icv (FIG. 5a)
Type: in vivo
Description: The Aβ1-42, obtained from Tocris (Bristol, UK), was dissolved in sterile double-distilled pyrogenic-free water, as vehicle, to obtain a final concentration 4 μM [Colaianna M et al. 2010]. Mice were anesthetized with a solution (0.85 in ml/kg, i.p.), containing ketamine (Sigma Aldrich, Milan, Italy, 100 mg/10 ml), xylazine (Sigma Aldrich, Milan, Italy, 100 mg/10 ml) and acepromazine (prequillant, ATI Azienda Terapeutica Veterinaria Srl, 10 mg/10 ml) dissolved in saline solution. […] At the time of dissection, the correct needle track was assessed. […]
All behavioral experiments were conducted at 5 or 30 min after sublingual administrations of βBA or vehicle in mice treated with SHAM or AP. Based on the observed behavioral results, neurochemical and biochemical quantifications were performed 30 min after administration of βCP, FE, and βBA or vehicle in SHAM- or Aβ-treated mice. […]
5-HT, noradrenaline (NA), and KYN levels were measured in the PFC and HIPP of mice by HPLC coupled with an electrochemical detector (Ultimate ECD, Thermo Scientific Dionex, Milan, Italy) as already reported [Francavilla M et al. 2012, Morgese M G et al. 2016]. […] GLU concentrations were determined by HPLC coupled with fluorescence detection (emission length 460 nm; excitation length 340 nm), as previously published [Francavilla M et al. 2012]. […]

SMILES: C[C@H]1[C@H](C)CC[C@]2(C)CC[C@]3(C)C(=CC[C@@H]4[C@@]5(C)CC[C@@H](O)[C@](C)(C(=O)O)[C@@H]5CC[C@]43C)[C@H]12 [βBA, β-boswellic acid]
- Serotonin (5-HT) levels: progressively greater serotonergic activity
